# Measurements from US11926609B1, “6′-(3-chlorophenyl)-2′-ethoxy-3,4′-bipyridine-3′-carbonitrile as antimicrobial compounds” (KING FAISAL UNIVERSITY, priority 2023, dated 2024).
# Columns and labels:
# Type in all cases: cell-based
# [1] = tested on: Aspergillus flavus; assay: Agar plate disc-diffusion, antifungal inhibition zone; conditions: Sabouraud's dextrose agar, 72 h, DMSO zone subtracted
# Description: (§1) The agar plate disc-diffusion method was applied. Sterilized filter papers (6 mm in diameter) were wetted with 10 μL of a solution of 6′-(3-chlorophenyl)-2′-ethoxy-3,4′-bipyridine-3′-carbonitrile (4) to be tested, containing […], and the discs were allowed to air dry. The discs were then placed onto the surface of agar plates (nutrient agar for bacteria and Sabouraud's dextrose agar for fungi) seeded with the test organism. Each plate contained 15 mL of the agar medium, previously seeded with 0.2 mL of the broth culture of each organism pregrown for 18 hours. The plates were incubated at 37° C. for 48 h, and 72 h for fungi. The inhibition zones were measured in mm. Discs impregnated with DMSO were used as a control, and its inhibition zone was subtracted from the tested compound actual inhibition zone.
# (§2) The results of the antimicrobial testing can be observed in Tables 1 and 2, below, using ciprofloxacin as a reference.
# [2] = tested on: Chrysosporium keratinophilum; assay: as above; conditions: Sabouraud's dextrose agar, 72 h, DMSO zone subtracted
# Description: as §1, §2
# [3] = tested on: Pseudomonas aeruginosa; assay: Agar plate disc-diffusion, antibacterial inhibition zone; conditions: Gram negative, nutrient agar, 37° C., 48 h, DMSO zone subtracted
# Description: as §1, §2
# [4] = tested on: Escherichia coli; assay: as above; conditions: Gram negative, nutrient agar, 37° C., 48 h, DMSO zone subtracted
# Description: as §1, §2
# [5] = tested on: Bacillus Cereus; assay: as above; conditions: Gram positive, nutrient agar, 37° C., 48 h, DMSO zone subtracted
# Description: as §1, §2
# [6] = tested on: Staphylococcus aureus; assay: as above; conditions: Gram positive, nutrient agar, 37° C., 48 h, DMSO zone subtracted
# Description: as §1, §2
# [7] = A = concentration of comp. = 10,000 μL
# [8] = B = concentration of comp. = 30.000 μL
# [9] = C = concentration of comp. = 50,000 μL
compound,measurement,setting,value
"CCOc1nc(-c2cccc(Cl)c2)cc(-c2cccnc2)c1C#N [compound 4, 6′-(3-chlorophenyl)-2′-ethoxy-3,4′-bipyridine-3′-carbonitrile]","inhibition zone, Aspergillus flavus, A",[1]; [7],21 mm
same,"inhibition zone, Aspergillus flavus, B",[1]; [8],25 mm
same,"inhibition zone, Aspergillus flavus, C",[1]; [9],36 mm
same,"inhibition zone, Chrysosporium keratinophilum, A",[2]; [7],24 mm
same,"inhibition zone, Chrysosporium keratinophilum, B",[2]; [8],26 mm
same,"inhibition zone, Chrysosporium keratinophilum, C",[2]; [9],47 mm
same,"inhibition zone, Pseudomonas aeruginosa, A",[3]; [7],22 mm
same,"inhibition zone, Pseudomonas aeruginosa, B",[3]; [8],29 mm
same,"inhibition zone, Pseudomonas aeruginosa, C",[3]; [9],38 mm
same,"inhibition zone, Escherichia coli, A",[4]; [7],26 mm
same,"inhibition zone, Escherichia coli, B",[4]; [8],36 mm
same,"inhibition zone, Escherichia coli, C",[4]; [9],48 mm
same,"inhibition zone, Bacillus Cereus, A",[5]; [7],26 mm
same,"inhibition zone, Bacillus Cereus, B",[5]; [8],28 mm
same,"inhibition zone, Bacillus Cereus, C",[5]; [9],40 mm
same,"inhibition zone, Staphylococcus aureus, A",[6]; [7],19 mm
same,"inhibition zone, Staphylococcus aureus, B",[6]; [8],26 mm
same,"inhibition zone, Staphylococcus aureus, C",[6]; [9],33 mm
